In article PMC11994961, “In Vivo pharmacokinetic interactions of ribociclib with rivaroxaban and apixaban in rats: implications for increased drug exposure and dose adjustments” (Frontiers in Pharmacology, 2025):

How the values were obtained:
[1] = Stability of ribociclib QC samples in rat plasma; format: in vitro ADME; settings: room temperature, autosampler 15°C, −80°C, three freeze-thaw cycles
Experimental: The method was validated per the guidelines of the Food and Drug Administration (US-FDA, 2022) and Chinese Pharmacopoeia (2020). Selectivity was determined by analyzing blank plasma samples from six different batches of rats and plasma samples from six different batches of rats after administration of ribociclib. There should be no interference, with retention times such that the blank plasma peak area is less than 5% of the internal standard (IS) and less than 20% of the lower limit of quantification (LLOQ). The calibration curves were evaluated using 10–4,000 ng/mL of ribociclib. Linearity was assessed by plotting the peak area ratios of the analyte to the IS against nominal concentrations, using weighted (1/x^2) least-squares linear regression. Accuracy and precision were determined for all concentrations derived from the calibration curves, ensuring that deviations were within 15% of the nominal concentration, except for the LLOQ, where the deviation should not exceed 20%. Precision and accuracy were assessed by analyzing plasma samples at low, medium, high, and LLOQ concentration levels over three consecutive days. The final precision and accuracy were determined by calculating the relative standard deviation (RSD) and relative error (RE) of the six samples. RSD and RE for QC concentrations were required to be within ±15%, and for the LLOQ, within ±20%. […]

[2] = test system: Abcb1a (P-gp) mRNA in the intestines; experiment: qRT-PCR mRNA expression in rat intestine after ribociclib; format: in vivo; settings: rats, ribociclib continuously for 8 days
Source text: (§1) qRT-PCR analysis was used to determine the mRNA levels of Cyp3a1(CYP3A4) in the liver and Abcb1a (P-gp), Cyp3a1(CYP3A4), Abcg2(BCRP) in the intestines. Total RNA was extracted from frozen liver and intestine samples using the TRNzol Universal reagent, following the manufacturer’s instructions. The Bio Tek Epoch (Bio Tek Instruments, Inc., Winooski, VT, United States) was used to quantify the purity and concentration of the total RNA, based on the ratio of the absorbance at 260 and 280 nm. The RNA samples, each containing 1 µg of material, were converted to complementary DNA (cDNA) using the FastKing RT Kit. The real-time PCR assays were performed using a two-step amplification protocol on the SLAN-96S Real-Time PCR system (Shanghai Hongshi Medical Technology Co., Ltd., Shanghai, China). […] was employed as an internal control, and the PCR cycling criteria were as follows: 95°C for 15 min, followed by 40 cycles of 95°C for 10 s and 60°C for 32 s.

[3] = test system: Cyp3a1(CYP3A4) mRNA in the intestines; experiment: as above; format: in vivo; settings: rats, ribociclib continuously for 8 days
Source text: as §1

[4] = test system: Abcg2(BCRP) mRNA in the intestines; experiment: as above; format: in vivo; settings: rats, ribociclib continuously for 8 days
Source text: as §1

[5] = set-up: method as in Wang et al., 2023; settings: rats, with almonertinib; ref Wang et al., 2023; cited from earlier work
[6] = test system: CYP2J2; set-up: method as in Mueck et al., 2013; settings: ref Mueck et al., 2013; cited from earlier work

Structure (SMILES)	stability of QC samples [1]	mRNA expression of Abcb1a in the intestine [2]	inhibition rate of intestinal Cyp3a1 mRNA expression [3]	inhibition rate of intestinal Abcg2 mRNA expression [4]	increase in AUC [5]	increase in Cmax [5]	share of total elimination by CYP2J2 [6]
CN(C)C(=O)c1cc2cnc(Nc3ccc(N4CCNCC4)cn3)nc2n1C1CCCC1 [RIBO, ribociclib]	excellent stability	no significant changes	82.6%	45.0%			
O=C(NC[C@H]1CN(c2ccc(N3CCOCC3=O)cc2)C(=O)O1)c1ccc(Cl)s1 [RIVA, rivaroxaban]					over three fold increases	over three fold increases	approximately 14%
